# In US8178077B2, “Drug development target protein and target gene, and method of screening” (Reverse Proteomics Research Institute Co., Ltd., priority 2004, dated 2012):
# Tests used:
# [1] = molecular target: T1, FLJ39196 clone-derived protein (human neurocalcin δ) (Homo sapiens, UniProt P61601); assay: SEC/MS interaction analysis (size exclusion spin column and mass analysis) with FLJ39196 clone-derived protein; assay type: binding
# T1 construct: A human full-length cDNA clone was expressed as a protein with an N-terminal His tag; His tag (N); made in house; host or cells: Escherichia coli BL21star(DE3)pLysS (pDEST17 Gateway expression plasmid)
# From the text: To analyze the interactions between commonly used drugs and proteins expressed from human full-length cDNA clones while keeping both the proteins and the compounds in non-modified, non-immobilized state, size exclusion chromatography (SEC) and mass analysis were used in combination (FIGS. 1, 2). The specific procedures are shown below.
# The compound-protein mixture prepared in step 1 was subjected to chromatography using an SEC column, the compound and the protein were separated by SEC, and the compound that interacted with the bound compound or protein contained in the protein fraction was analyzed using a mass analyzer.
# Protein concentrations were measured using BCA Protein Assay (PIERCE), in consideration of the purity calculated by SDS-PAGE.
# Mass analysis was performed using LCQ DECA XP (Thermoelectron) or Q-TOFmicro (Micromass), equipped with an ESI probe. The LC pump used was Agilent 1100 (Yokogawa Analytical Systems), and the autosampler used was HTC-PAL (CTC Analytics) equipped with a cooling stacker.
# In the SEC method using 384-well spin columns, Unifilter 100 (Whatman), packed with 10 μL (dry volume) of Bio-Gel P6 (BIO-RAD) and swollen with milliQ water, was used as the SEC column. 13.3 μL of a protein-free reference standard or a 25 μM protein standard and 0.7 μL of a multiplied liquid comprising 25 μM of each pharmaceutical compound (5% DMSO aqueous solution) were mixed; 9 μL of this mixture was aliquoted into the SEC spin columns. The SEC spin column was mounted on an acetonitrile-aliquoted 384-well U-bottom plate and centrifuged; the SEC spin column filtrate, which is a protein fraction, was retrieved in 50% acetonitrile. The protein precipitate produced by the acetonitrile was removed via centrifugation and filtration for deproteinization; the resulting filtrate was concentrated by centrifugation and re-dissolved in 10 μL of 50% methanol to obtain a mass analysis sample. The mobile phase supplied to the mass analyzer was 0.1% formic acid/50% methanol solution in the positive ion mode, and 0.1% ammonia/50% methanol solution in the negative ion mode; these mobile phases were used at a flow rate of 40 μL/min. 2-μL of mass analysis samples were injected using an autosampler at 2-minute intervals; the mass spectral intensity of the compound was measured to obtain the spectral intensity of the pharmaceutical compound contained in the SEC spin column filtrate (protein fraction eluted from SEC).
# [2] = molecular target: T2, FLJ20589 clone-derived protein (human hippocalcin-like protein 1, VILIP-3) (Homo sapiens, UniProt P37235); assay: SEC/MS interaction analysis (size exclusion spin column and mass analysis) with FLJ20589 clone-derived protein; assay type: binding
# T2 construct: A human full-length cDNA clone was expressed as a protein with an N-terminal His tag; His tag (N); made in house; host or cells: Escherichia coli BL21star(DE3)pLysS (pDEST17 Gateway expression plasmid)
# [3] = protein 0 μM (protein-free reference), compound 1 μM
# [4] = protein 0 μM (protein-free reference), compound 10 μM
# [5] = protein 0 μM (protein-free reference), compound 100 μM
# [6] = protein 0 μM (protein-free reference), compound 250 μM
# [7] = protein 23.75 μM, compound 1 μM
# [8] = protein 23.75 μM, compound 10 μM
# [9] = protein 23.75 μM, compound 100 μM
# [10] = protein 23.75 μM, compound 250 μM
# [11] = protein 47.5 μM, compound 10 μM
# [12] = protein 47.5 μM, compound 100 μM
# [13] = protein 47.5 μM, compound 250 μM
Structure (SMILES),"spectral intensity of the compound in the SEC spin column filtrate (protein fraction) [1, 3]","spectral intensity of the compound in the SEC spin column filtrate (protein fraction) [1, 4]","spectral intensity of the compound in the SEC spin column filtrate (protein fraction) [1, 5]","spectral intensity of the compound in the SEC spin column filtrate (protein fraction) [1, 6]","spectral intensity of the compound in the SEC spin column filtrate (protein fraction) [1, 7]","spectral intensity of the compound in the SEC spin column filtrate (protein fraction) [1, 8]","spectral intensity of the compound in the SEC spin column filtrate (protein fraction) [1, 9]","spectral intensity of the compound in the SEC spin column filtrate (protein fraction) [1, 10]","spectral intensity of the compound in the SEC spin column filtrate (protein fraction) ([1]; protein 47.5 μM, compound 1 μM)","spectral intensity of the compound in the SEC spin column filtrate (protein fraction) [1, 11]","spectral intensity of the compound in the SEC spin column filtrate (protein fraction) [1, 12]","spectral intensity of the compound in the SEC spin column filtrate (protein fraction) [1, 13]",also measured
O=C1CN=C(c2ccccc2)c2cc(Cl)ccc2N1CC1CC1 [prazepam],45379226,21988256,130413200,139016191,38417587,46660512,258681345,517983224,26479402,67670753,264065408,706383483,"spectral intensity of the compound in the SEC spin column filtrate (protein fraction) [2, 3]: 563508; spectral intensity of the compound in the SEC spin column filtrate (protein fraction) [2, 4]: 752185; spectral intensity of the compound in the SEC spin column filtrate (protein fraction) [2, 5]: 5911478; spectral intensity of the compound in the SEC spin column filtrate (protein fraction) [2, 6]: 8158416; spectral intensity of the compound in the SEC spin column filtrate (protein fraction) [2, 7]: 372254; spectral intensity of the compound in the SEC spin column filtrate (protein fraction) [2, 8]: 1912944; spectral intensity of the compound in the SEC spin column filtrate (protein fraction) [2, 9]: 27662748; spectral intensity of the compound in the SEC spin column filtrate (protein fraction) [2, 10]: 53037838; spectral intensity of the compound in the SEC spin column filtrate (protein fraction) ([2]; protein 47.5 μM, compound 1 μM): 603084; spectral intensity of the compound in the SEC spin column filtrate (protein fraction) [2, 11]: 8279573; spectral intensity of the compound in the SEC spin column filtrate (protein fraction) [2, 12]: 67316791; spectral intensity of the compound in the SEC spin column filtrate (protein fraction) [2, 13]: 87274751"
Fc1ccc(C(c2ccc(F)cc2)N2CCN(C/C=C/c3ccccc3)CC2)cc1 [Flunarizine],,,,,,,,,,,,,"spectral intensity of the compound in the SEC spin column filtrate (protein fraction) [2, 3]: 188851; spectral intensity of the compound in the SEC spin column filtrate (protein fraction) [2, 4]: 200579; spectral intensity of the compound in the SEC spin column filtrate (protein fraction) [2, 5]: 198757; spectral intensity of the compound in the SEC spin column filtrate (protein fraction) [2, 6]: 253795; spectral intensity of the compound in the SEC spin column filtrate (protein fraction) [2, 7]: 501950; spectral intensity of the compound in the SEC spin column filtrate (protein fraction) [2, 8]: 137693; spectral intensity of the compound in the SEC spin column filtrate (protein fraction) [2, 9]: 181386; spectral intensity of the compound in the SEC spin column filtrate (protein fraction) [2, 10]: 308575; spectral intensity of the compound in the SEC spin column filtrate (protein fraction) ([2]; protein 47.5 μM, compound 1 μM): 58869; spectral intensity of the compound in the SEC spin column filtrate (protein fraction) [2, 11]: 178128; spectral intensity of the compound in the SEC spin column filtrate (protein fraction) [2, 12]: 2683794; spectral intensity of the compound in the SEC spin column filtrate (protein fraction) [2, 13]: 9317332"
CC(C)[C@@]1(NC(=O)[C@@H]2C[C@@H]3c4cccc5[nH]cc(c45)C[C@H]3N(C)C2)O[C@@]2(O)[C@@H]3CCCN3C(=O)[C@H](Cc3ccccc3)N2C1=O [Dihydroergocristine],25663523,10810305,75466444,137535150,68120944,327393156,910395859,871970698,95970671,593118709,1961163889,2985742521,
CCc1cc2c(s1)N(C)C(=O)CN=C2c1ccccc1Cl [clotiazepam],8089543,19826757,251469420,633414607,8254340,25038949,283452799,759706893,9022620,60448900,657940514,1089985810,
OCCN1CCN(CC/C=C2/c3ccccc3Sc3ccc(C(F)(F)F)cc32)CC1 [Flupentixol cis-(Z)],57845690,59201705,138331819,1019443291,38801184,66148127,474717521,1437323119,54783295,82852252,1301876646,1766098462,
COC(=O)[C@H]1[C@H]2C[C@@H]3c4[nH]c5cc(OC)ccc5c4CCN3C[C@H]2C[C@@H](OC(=O)/C=C/c2cc(OC)c(OC)c(OC)c2)[C@@H]1OC [Rescinnamine],9843174,6544896,12903374,7315419,11269941,21895843,215933519,288844471,17653515,40677751,675671326,1469409087,
C[C@]12Cc3c[nH]nc3C[C@@H]1CC[C@@H]1[C@@H]2CC[C@@]2(C)[C@H]1CC[C@]2(C)O [stanozolol],3108300,2749518,3830491,4150230,3620481,10223886,127989356,194560574,3989532,25533379,619287498,778914733,
